Measured values from paper PMC5095062, “The novel choline kinase inhibitor ICL-CCIC-0019 reprograms cellular metabolism and inhibits cancer cell growth” (Oncotarget, 2016).

What was measured:
Experiment in all cases: Kinase selectivity screen
Type in all cases: biochemical
ROCK 2 = ROCK 2 (Homo sapiens, UniProt O75116); details: ROCK 2, 10 μM
Method: (§1) The substantially less demanding synthesis of ICL-CCIC-0019 compared with MN58B bears additional advantages. […] This consequently diminished intracellular PCho concentration, and importantly, the incorporation of [^3H]-choline into lipids (Figure 1D). […] To assess kinase specificity, ICL-CCIC-0019 was tested against a panel of 131 human kinases (Figure 1E and Supplementary Table S1). […] Inhibition greater than 20% was attained for insulin-like growth factor 1 (IGF-1R, 35 ± 7% inhibition), mitogen-activated protein kinase-activated protein kinase 3 (MAPKAP-K3, 33 ± 6%), extracellular signal regulated kinase 8 (ERK8, 31 ± 4%), ribosomal S6 kinase 1 (RSK1, 22 ± 6%), and v-erb-a erythroblastic leukemia viral oncogene homolog 4 (HER4, 21 ± 7%).

NEK2a = NEK2a (Homo sapiens, UniProt P51955)
Method: as §1

IKKb = IKKb (Homo sapiens, UniProt O14920)
Chain of IKKb (O14920 whole entry): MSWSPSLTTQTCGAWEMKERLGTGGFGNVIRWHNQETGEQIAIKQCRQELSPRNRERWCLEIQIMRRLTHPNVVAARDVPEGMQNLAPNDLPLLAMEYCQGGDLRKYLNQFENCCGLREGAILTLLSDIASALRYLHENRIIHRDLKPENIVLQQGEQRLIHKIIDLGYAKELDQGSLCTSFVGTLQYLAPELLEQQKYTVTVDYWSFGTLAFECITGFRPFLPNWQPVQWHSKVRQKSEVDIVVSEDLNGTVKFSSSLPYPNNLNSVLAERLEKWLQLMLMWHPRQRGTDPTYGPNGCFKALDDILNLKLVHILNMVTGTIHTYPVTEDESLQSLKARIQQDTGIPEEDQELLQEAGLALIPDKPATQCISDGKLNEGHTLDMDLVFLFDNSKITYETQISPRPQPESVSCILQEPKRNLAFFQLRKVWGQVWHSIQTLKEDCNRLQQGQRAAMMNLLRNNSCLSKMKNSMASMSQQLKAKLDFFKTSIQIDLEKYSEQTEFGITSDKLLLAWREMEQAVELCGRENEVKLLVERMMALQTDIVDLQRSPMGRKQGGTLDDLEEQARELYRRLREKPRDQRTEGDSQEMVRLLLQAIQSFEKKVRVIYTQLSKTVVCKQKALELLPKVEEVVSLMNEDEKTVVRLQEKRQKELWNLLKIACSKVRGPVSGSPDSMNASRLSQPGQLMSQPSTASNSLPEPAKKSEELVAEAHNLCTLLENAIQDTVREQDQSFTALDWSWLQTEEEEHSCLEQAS
Method: as §1

MKK6 = MKK6 (Homo sapiens, UniProt P52564); details: MKK6, 10 μM
Chain of MKK6 (P52564 whole entry): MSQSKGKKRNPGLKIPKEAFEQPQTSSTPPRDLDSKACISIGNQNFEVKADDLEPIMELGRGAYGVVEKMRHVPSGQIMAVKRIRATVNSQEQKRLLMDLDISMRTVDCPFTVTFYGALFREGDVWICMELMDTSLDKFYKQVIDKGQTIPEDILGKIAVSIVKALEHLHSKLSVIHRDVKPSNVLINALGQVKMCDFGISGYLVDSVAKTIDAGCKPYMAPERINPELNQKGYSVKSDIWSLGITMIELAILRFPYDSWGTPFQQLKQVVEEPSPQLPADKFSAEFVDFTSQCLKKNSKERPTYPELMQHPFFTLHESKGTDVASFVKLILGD
Method: as §1

EPH-B2 = EPH-B2 (Homo sapiens, UniProt P29323); details: EPH-B2, 10 μM
Method: as §1

GCK = GCK (Homo sapiens, UniProt Q12851)
Method: as §1

CDK9-Cyclin T1 = CDK9-Cyclin T1 (Homo sapiens, UniProt P50750); details: CDK9-Cyclin T1, 10 μM
Method: as §1

WNK1 = WNK1 (Homo sapiens, UniProt Q9H4A3); details: WNK1, 10 μM
Method: as §1

TSSK1 = TSSK1 (Homo sapiens, UniProt Q9BXA7); details: TSSK1, 10 μM
Method: as §1

PKCγ = PKCγ (Homo sapiens, UniProt P05129)
Method: as §1

DYRK3 = DYRK3 (Homo sapiens, UniProt O43781); details: DYRK3, 10 μM
Method: as §1

CK1γ2 = CK1γ2 (Homo sapiens, UniProt P78368); details: CK1γ2, 10 μM
Method: as §1

CSK = CSK (Homo sapiens, UniProt P41240)
Method: as §1

PKD1 = PKD1 (Homo sapiens, UniProt Q15139); details: PKD1, 10 μM
Method: as §1

PDK1 = PDK1 (Homo sapiens, UniProt O15530); details: PDK1, 10 μM
Method: as §1

ERK2 = ERK2 (Homo sapiens, UniProt P28482); details: ERK2, 10 μM
Method: as §1

S6K1 = S6K1 (Homo sapiens, UniProt P23443); details: S6K1, 10 μM
Method: as §1

p38d MAPK = p38d MAPK (Homo sapiens, UniProt O15264)
Method: as §1

MSK1 = MSK1 (Homo sapiens, UniProt O75582); details: MSK1, 10 μM
Method: as §1

EPH-A4 = EPH-A4 (Homo sapiens, UniProt P54764); details: EPH-A4, 10 μM
Method: as §1

SIK3 = SIK3 (Homo sapiens, UniProt Q9Y2K2); details: SIK3, 10 μM
Method: as §1

TrkA = TrkA (Homo sapiens, UniProt P04629)
Chain of TrkA (P04629 33-796): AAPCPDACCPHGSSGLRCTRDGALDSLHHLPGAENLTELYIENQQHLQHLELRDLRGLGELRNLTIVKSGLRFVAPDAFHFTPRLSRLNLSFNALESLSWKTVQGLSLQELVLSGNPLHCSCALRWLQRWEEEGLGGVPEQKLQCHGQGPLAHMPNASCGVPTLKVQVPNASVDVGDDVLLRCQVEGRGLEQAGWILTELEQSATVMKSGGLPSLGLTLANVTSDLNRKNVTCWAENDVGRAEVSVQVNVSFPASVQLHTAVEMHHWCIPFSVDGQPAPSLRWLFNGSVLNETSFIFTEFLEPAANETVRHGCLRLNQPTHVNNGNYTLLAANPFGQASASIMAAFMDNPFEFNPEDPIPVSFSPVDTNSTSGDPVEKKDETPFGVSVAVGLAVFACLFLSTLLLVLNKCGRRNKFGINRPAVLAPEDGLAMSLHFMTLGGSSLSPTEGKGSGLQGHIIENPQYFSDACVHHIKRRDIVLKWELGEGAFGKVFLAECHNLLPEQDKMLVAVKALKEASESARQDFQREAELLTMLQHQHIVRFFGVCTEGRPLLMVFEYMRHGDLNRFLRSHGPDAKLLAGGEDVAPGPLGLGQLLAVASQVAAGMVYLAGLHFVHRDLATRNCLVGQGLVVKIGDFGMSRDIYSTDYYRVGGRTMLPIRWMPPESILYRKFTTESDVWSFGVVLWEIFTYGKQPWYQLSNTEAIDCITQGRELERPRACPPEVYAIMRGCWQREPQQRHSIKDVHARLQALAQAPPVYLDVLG
Method: as §1

PRAK = PRAK (Homo sapiens, UniProt Q8IW41)
Method: as §1

Aurora B = Aurora B (Homo sapiens, UniProt Q96GD4)
Chain of Aurora B (Q96GD4 whole entry): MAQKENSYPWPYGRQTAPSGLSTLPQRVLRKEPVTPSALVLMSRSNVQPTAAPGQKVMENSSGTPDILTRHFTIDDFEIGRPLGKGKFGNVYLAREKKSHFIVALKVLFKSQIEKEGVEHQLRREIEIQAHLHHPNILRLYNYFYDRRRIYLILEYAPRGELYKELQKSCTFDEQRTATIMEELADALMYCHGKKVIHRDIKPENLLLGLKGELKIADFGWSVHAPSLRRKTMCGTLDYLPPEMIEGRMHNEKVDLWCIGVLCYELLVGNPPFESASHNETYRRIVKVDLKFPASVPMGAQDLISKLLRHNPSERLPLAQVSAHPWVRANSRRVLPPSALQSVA
Method: as §1

JNK1 = JNK1 (Homo sapiens, UniProt P45983); details: JNK1, 10 μM
Chain of JNK1 (P45983 whole entry): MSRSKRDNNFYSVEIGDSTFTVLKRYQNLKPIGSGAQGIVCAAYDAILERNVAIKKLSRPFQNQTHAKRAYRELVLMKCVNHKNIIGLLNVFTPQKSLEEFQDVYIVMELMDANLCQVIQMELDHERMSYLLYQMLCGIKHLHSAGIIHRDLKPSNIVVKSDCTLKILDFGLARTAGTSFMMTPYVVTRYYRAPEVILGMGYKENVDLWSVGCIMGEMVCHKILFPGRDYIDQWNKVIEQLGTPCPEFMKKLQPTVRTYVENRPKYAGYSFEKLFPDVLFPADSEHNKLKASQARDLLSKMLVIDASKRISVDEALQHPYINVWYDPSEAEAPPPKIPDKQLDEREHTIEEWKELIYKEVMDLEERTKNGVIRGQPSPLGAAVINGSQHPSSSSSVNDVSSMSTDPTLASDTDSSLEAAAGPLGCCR
Method: as §1

NUAK1 = NUAK1 (Homo sapiens, UniProt O60285); details: NUAK1, 10 μM
Method: as §1

PIM2 = PIM2 (Homo sapiens, UniProt Q9P1W9); details: PIM2, 10 μM
Method: as §1

ZAP70 = ZAP70 (Homo sapiens, UniProt P43403); details: ZAP70, 10 μM
Chain of ZAP70 (P43403 whole entry): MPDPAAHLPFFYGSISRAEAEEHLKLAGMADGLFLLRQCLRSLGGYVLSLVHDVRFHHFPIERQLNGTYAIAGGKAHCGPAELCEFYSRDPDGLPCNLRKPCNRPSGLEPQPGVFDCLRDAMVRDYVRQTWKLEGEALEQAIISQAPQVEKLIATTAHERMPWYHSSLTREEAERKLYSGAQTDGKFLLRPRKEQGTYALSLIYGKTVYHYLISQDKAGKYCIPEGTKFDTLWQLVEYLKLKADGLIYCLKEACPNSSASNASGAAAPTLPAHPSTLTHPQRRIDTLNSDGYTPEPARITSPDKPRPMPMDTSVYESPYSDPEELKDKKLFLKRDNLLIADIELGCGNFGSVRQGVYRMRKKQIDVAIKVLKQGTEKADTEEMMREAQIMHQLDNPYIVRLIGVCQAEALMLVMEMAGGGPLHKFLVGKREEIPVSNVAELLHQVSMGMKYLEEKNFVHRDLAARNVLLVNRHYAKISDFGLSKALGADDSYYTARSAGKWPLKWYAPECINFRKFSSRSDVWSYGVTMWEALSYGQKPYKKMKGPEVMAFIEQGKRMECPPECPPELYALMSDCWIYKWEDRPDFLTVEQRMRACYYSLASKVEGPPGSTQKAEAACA
Method: as §1

CLK2 = CLK2 (Homo sapiens, UniProt P49760); details: CLK2, 10 μM
Method: as §1

MEKK1 = MEKK1 (Homo sapiens, UniProt Q13233); details: MEKK1, 10 μM
Method: as §1

MARK3 = MARK3 (Homo sapiens, UniProt P27448); details: MARK3, 10 μM
Method: as §1

PAK5 = PAK5 (Homo sapiens, UniProt Q9P286); details: PAK5, 10 μM
Method: as §1

EF2K = EF2K (Homo sapiens, UniProt O00418)
Method: as §1

PHK = PHK (Homo sapiens, UniProt Q16816)
Method: as §1

HIPK2 = HIPK2 (Homo sapiens, UniProt Q9H2X6); details: HIPK2, 10 μM
Chain of HIPK2 (Q9H2X6 whole entry): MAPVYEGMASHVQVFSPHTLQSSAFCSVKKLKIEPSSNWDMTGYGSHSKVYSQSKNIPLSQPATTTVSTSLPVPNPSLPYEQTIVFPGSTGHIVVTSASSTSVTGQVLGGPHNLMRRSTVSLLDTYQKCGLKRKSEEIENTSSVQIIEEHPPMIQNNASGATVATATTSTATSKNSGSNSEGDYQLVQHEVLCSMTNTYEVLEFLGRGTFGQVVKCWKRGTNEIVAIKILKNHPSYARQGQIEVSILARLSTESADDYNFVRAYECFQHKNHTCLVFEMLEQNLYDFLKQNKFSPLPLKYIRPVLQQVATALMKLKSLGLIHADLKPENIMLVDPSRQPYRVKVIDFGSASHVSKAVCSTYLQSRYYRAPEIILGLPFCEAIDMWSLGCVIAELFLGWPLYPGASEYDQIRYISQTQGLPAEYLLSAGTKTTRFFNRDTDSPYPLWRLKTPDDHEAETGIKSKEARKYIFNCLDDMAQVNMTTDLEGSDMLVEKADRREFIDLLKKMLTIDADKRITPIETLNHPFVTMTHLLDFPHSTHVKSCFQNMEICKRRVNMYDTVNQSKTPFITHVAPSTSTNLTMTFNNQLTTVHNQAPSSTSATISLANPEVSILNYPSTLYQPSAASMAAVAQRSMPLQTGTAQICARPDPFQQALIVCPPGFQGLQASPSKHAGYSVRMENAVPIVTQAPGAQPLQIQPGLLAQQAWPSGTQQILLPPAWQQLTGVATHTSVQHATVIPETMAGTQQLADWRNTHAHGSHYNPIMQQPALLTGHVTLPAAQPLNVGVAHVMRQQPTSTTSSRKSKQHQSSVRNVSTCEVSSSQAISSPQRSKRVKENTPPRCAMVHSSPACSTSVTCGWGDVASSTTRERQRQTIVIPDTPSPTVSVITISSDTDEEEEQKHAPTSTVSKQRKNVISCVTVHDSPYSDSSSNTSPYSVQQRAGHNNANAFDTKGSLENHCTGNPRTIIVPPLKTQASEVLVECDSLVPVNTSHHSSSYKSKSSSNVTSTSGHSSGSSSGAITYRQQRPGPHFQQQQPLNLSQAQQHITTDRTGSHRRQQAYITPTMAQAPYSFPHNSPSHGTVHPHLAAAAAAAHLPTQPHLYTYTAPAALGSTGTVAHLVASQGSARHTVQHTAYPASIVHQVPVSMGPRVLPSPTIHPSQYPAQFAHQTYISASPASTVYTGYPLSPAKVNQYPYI
Method: as §1

DYRK2 = DYRK2 (Homo sapiens, UniProt Q92630); details: DYRK2, 10 μM
Chain of DYRK2 (Q92630 whole entry): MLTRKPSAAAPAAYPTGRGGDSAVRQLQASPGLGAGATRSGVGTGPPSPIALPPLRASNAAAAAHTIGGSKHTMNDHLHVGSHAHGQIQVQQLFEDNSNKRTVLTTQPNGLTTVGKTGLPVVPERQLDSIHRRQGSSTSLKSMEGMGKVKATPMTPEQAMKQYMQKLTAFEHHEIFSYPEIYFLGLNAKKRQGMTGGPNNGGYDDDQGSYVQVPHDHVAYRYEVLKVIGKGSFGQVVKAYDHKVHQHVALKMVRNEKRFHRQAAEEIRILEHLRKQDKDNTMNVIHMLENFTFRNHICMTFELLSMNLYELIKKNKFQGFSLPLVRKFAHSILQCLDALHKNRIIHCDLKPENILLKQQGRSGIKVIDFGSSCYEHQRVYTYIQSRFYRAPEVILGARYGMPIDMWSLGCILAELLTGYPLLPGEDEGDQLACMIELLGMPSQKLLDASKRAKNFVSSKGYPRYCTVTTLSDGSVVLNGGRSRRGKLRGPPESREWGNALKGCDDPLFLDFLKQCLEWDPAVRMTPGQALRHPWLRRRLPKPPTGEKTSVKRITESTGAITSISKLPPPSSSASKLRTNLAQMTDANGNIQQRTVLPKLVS
Method: as §1

`CN(C)c1cc[n+](CCCCCCCCCCCC[n+]2ccc(N(C)C)cc2)cc1` [ICL-CCIC-0019] was tested, and the remaining activity at 10 µM (ROCK 2) was 97%, the remaining activity at 10 µM (NEK2a) was 101% and the remaining activity at 10 µM (IKKb) was 101%. The remaining activity at 10 µM (MKK6) was 102%, the remaining activity at 10 µM (EPH-B2) was 90% and the remaining activity at 10 µM (GCK) was 89%. It also gave a remaining activity at 10 µM (CDK9-Cyclin T1) of 95%, a remaining activity at 10 µM (WNK1) of 102% and a remaining activity at 10 µM (TSSK1) of 107%. The remaining activity at 10 µM (PKCγ) was 93%, the remaining activity at 10 µM (DYRK3) was 106% and the remaining activity at 10 µM (CK1γ2) was 92%. For the same compound, the remaining activity at 10 µM (CSK) was 96%, the remaining activity at 10 µM (PKD1) was 105% and the remaining activity at 10 µM (PDK1) was 133%. For the same compound, the remaining activity at 10 µM (ERK2) was 103%, the remaining activity at 10 µM (S6K1) was 88% and the remaining activity at 10 µM (p38d MAPK) was 100%. The remaining activity at 10 µM (MSK1) was 96%, the remaining activity at 10 µM (EPH-A4) was 124% and the remaining activity at 10 µM (SIK3) was 102%. For the same compound, the remaining activity at 10 µM (TrkA) was 84%, the remaining activity at 10 µM (PRAK) was 101% and the remaining activity at 10 µM (Aurora B) was 102%. For the same compound, the remaining activity at 10 µM (JNK1) was 98%, the remaining activity at 10 µM (NUAK1) was 103% and the remaining activity at 10 µM (PIM2) was 103%. The remaining activity at 10 µM (ZAP70) was 102%, the remaining activity at 10 µM (CLK2) was 101% and the remaining activity at 10 µM (MEKK1) was 92%. It also gave a remaining activity at 10 µM (MARK3) of 106%, a remaining activity at 10 µM (PAK5) of 90% and a remaining activity at 10 µM (EF2K) of 99%. For the same compound, the remaining activity at 10 µM (PHK) was 94%, the remaining activity at 10 µM (HIPK2) was 104% and the remaining activity at 10 µM (DYRK2) was 96%.
